Assay results published in US4999372A, “New aminochromanol compounds” (ADIR et Compagnie, priority 1988, dated 1991).
Read-outs that look alike come from different tables or passages of the source.

Tests used:
anaesthetised dog = test: Haemodynamic study in the anaesthetised dog (vascular resistances), i.v.; assay type: in vivo
Procedure: A complete haemodynamic study was carried out on mongrel dogs weighing from 25 to 30 kg, which were anaesthetised with sodium pentobarbital 30 mg/kg i.v., intubated and ventilated and subjected to a thoracotomy at the 5th left intercostal space. The measurement of the […] is carried out using electromagnetic rings positioned at the level of the ascending aorta and the circumflex branch of the left coronary artery, respectively, and connected to GOULD SP 2202 electromagnetic flow meters. The aortic pressure is measured by a MILLAR probe introduced via the femoral artery.
The total peripheral vascular resistance values (TPR) and the mean coronary vascular resistance values (CVRM) are calculated by the ratio between the mean aortic pressure and the mean cardiac output and the mean coronary output, respectively. The products tested were injected via the femoral vein in a form dissolved in water or a suitable solvent.
The evolution of the vascular resistances, expressed as percentage variation with respect to the control values, is presented as a function of time in the following Table.

aorta of the rat [1] = test: Relaxation of rat aortic rings contracted by potassium depolarisation (KCl); assay type: cell-based; settings: rat aorta rings without endothelium
Procedure: (§1) Male Wistar rats (325-375 g) are anaesthetised i.p. using sodium pentobarbital (30 mg/kg). The thoracic aorta and the mesenteric portal vein are removed. The aorta is dissected into rings 3 mm long and the endothelium is removed mechanically.
(§2) The organs are placed in a 20 ml thermostatically controlled vessel containing a physiological solution composed of (mM): NaCl 112; KCl 5; KH2 PO4 1; MgSO4 1.2; CaCl2 2.5; NaHCO3 25; glucose 11.5; EDTA 0.1; pH: 7.4; 37° C.; 95% O2 +5% CO2.
(§3) The initial force applied is 2 g in the case of the aorta and 0.5 g in the case of the portal vein. The variations in force are measured by a STATHAM sensor connected to a transducer amplifier (GOULD) and are monitored continuously on a GOULD 2400 graphic recorder.
(§4) The experimental protocols are as follows: After a stabilisation period of 90 minutes, the aortic rings are subjected to various tests:
potassium depolarisation:
The preparations are exposed to a 30 mM or 80 mM KCl (and 87 and 37 mM NaCl, respectively) hyperpotassium medium; after 30 minutes' stabilisation of contraction, cumulative concentrations of the product to be tested are added every 15 minutes. The relaxation values obtained allow the IC50 s to be calculated.
(§5) The products are used in a form dissolved in water or a suitable solvent.
(§6) The concentrations expressed refer to the final concentrations in terms of base in the isolated organ baths.

[2] = test system: spontaneously hypertensive rat (SHR); test: Arterial pressure in the conscious spontaneously hypertensive rat (SHR), oral; assay type: in vivo
Procedure: The study is carried out on SHR male rats (Charles River) weighing from 260 g to 330 g and aged from 18 to 20 weeks. A polyethylene catheter is positioned at the level of the abdominal aorta and tunnelised at the level of the neck under anaesthesia (ketamine hydrochloride 150 mg/kg intraperitoneally). The animals, placed in movement-restraining cages, are tested in the conscious state at least 48 hours after intervention. The arterial pressure, measured by a STATHAM P23 pressure sensor connected to the abdominal catheter, is registered on a GOULD 2400 recorder. […] The doses administered are expressed in mg/kg of base.
The results obtained with a certain number of representative products of the invention and a reference product, CROMAKALIM, are grouped in the following Table. The variations in systolic and diastolic arterial pressure (PAS and PAD) presented at the most significant times after treatment are expressed as percentage variation with respect to the control values.

[3] = test system: conscious renally hypertensive dog; test: Arterial pressure in the conscious renally hypertensive dog; assay type: in vivo; settings: gastric intubation, 0.1 mg/kg
Procedure: Mongrel dogs weighing from 20 to 25 kg are used. A silastic catheter positioned under anaesthesia (sodium pentobarbital 30 mg/kg i.v.) at the level of the abdominal aorta and left over a prolonged period permits the later measurement of the arterial pressure in the conscious animals. Arterial hypertension is induced by a second intervention under anaesthesia consisting in a constriction of the left renal artery using a clip, which reduces its rate of flow by approximately 70%, the left kidney is enveloped in a latex capsule and the contralateral kidney is left in place.
The systolic and diastolic arterial pressures (PAS and PAD) are measured using a STATHAM P23 pressure sensor connected to the silastic catheter and linked to a GOULD pressure amplifier. The products are tested on the animals, which have become hypertensive, in the conscious state, at least one week after the second intervention. The arterial pressure is monitored continuously on an ES1000 GOULD recorder until 7 hours have elapsed after the treatment and then until 24 hours have elapsed.
The products to be tested are administered via the digestive system, after gastric intubation, in a form dissolved in water or a suitable solvent. The doses administered are expressed in mg of base with respect to body weight.
The representative products of the invention were compared with the reference product (CROMAKALIM). The variations in the systolic and diastolic arterial pressures (PAS and PAD), presented at the most significant times after treatment, are expressed as percentage variation with respect to the control values.

aorta of the rat [4] = test: Reactivity of rat aortic rings to 4-aminopyridine (4 AP); assay type: cell-based; settings: 4 AP 5 mM
Procedure: as §1, §2, §3, §4
reactivity to 4-aminopyridine (4 AP)
The product to be tested, at a given concentration, or its solvent, is incubated in the normal physiological solution 15 minutes before the addition of the 4 AP (5 mM).
The maximum amplitudes of the responses to the 4 AP in the presence of the product or the solvent are compared.
as §5, §6

[5] = Rattus norvegicus, 80 mM KCl, read-out: IC50 (M) KCl 80 mM

`CC1(C)Oc2ccc(C#N)cc2[C@@H](N2CCCC2=O)[C@@H]1O` (relative stereo) [CROMAKALIM, reference compound] was tested, and the “Variation (%) of CVRM after treatment” value (anaesthetised dog; 10 μg/kg, 1 min) was -69.0%, the “Variation (%) of TPR after treatment” value (anaesthetised dog; 10 μg/kg, 1 min) was -26.8% and the “Variation (%) of CVRM after treatment” value (anaesthetised dog; 10 μg/kg, 10 min) was -38.1%. The “Variation (%) of TPR after treatment” value (anaesthetised dog; 10 μg/kg, 10 min) was -15.5%, the “Variation (%) of CVRM after treatment” value (anaesthetised dog; 10 μg/kg, 30 min) was -27.4% and the “Variation (%) of TPR after treatment” value (anaesthetised dog; 10 μg/kg, 30 min) was -7.8%. The IC50 (aorta of the rat [1]; Rattus norvegicus, 30 mM KCl, read-out: IC50 (M) KCl 30 mM) was 4.2e-07 M, the IC50 (aorta of the rat [1]; [5]) was greater than 0.0001 M and the “Variation (%) of PAD after treatment” value ([2]; 0.3 mg/kg, 1 H) was -26 ± 3%. For the same molecule, the “Variation (%) of PAS after treatment” value ([2]; 0.3 mg/kg, 1 H) was -21 ± 3%, the “Variation (%) of PAD after treatment” value ([2]; 0.3 mg/kg, 3 H) was -7 ± 5% and the “Variation (%) of PAS after treatment” value ([2]; 0.3 mg/kg, 3 H) was -5 ± 4%. For the same molecule, the “Variation (%) of PAD after treatment” value ([2]; 0.3 mg/kg, 6 H) was -3 ± 1%, the “Variation (%) of PAS after treatment” value ([2]; 0.3 mg/kg, 6 H) was -1 ± 2% and the “Variation (%) of PAD after treatment” value ([2]; 0.3 mg/kg, 30 min) was -34 ± 2%. The “Variation (%) of PAS after treatment” value ([2]; 0.3 mg/kg, 30 min) was -29 ± 2%, the “Variation (%) of PAD after treatment” value ([2]; 1.0 mg/kg, 1 H) was -33 ± 3% and the “Variation (%) of PAS after treatment” value ([2]; 1.0 mg/kg, 1 H) was -23 ± 4%. The “Variation (%) of PAD after treatment” value ([2]; 1.0 mg/kg, 3 H) was -25 ± 4%, the “Variation (%) of PAS after treatment” value ([2]; 1.0 mg/kg, 3 H) was -19 ± 3% and the “Variation (%) of PAD after treatment” value ([2]; 1.0 mg/kg, 6 H) was -20 ± 2%. The “Variation (%) of PAS after treatment” value ([2]; 1.0 mg/kg, 6 H) was -15 ± 2%, the “Variation (%) of PAD after treatment” value ([2]; 1.0 mg/kg, 30 min) was -44 ± 4% and the “Variation (%) of PAS after treatment” value ([2]; 1.0 mg/kg, 30 min) was -34 ± 5%. The “Variation (%) of PAD after treatment” value ([3]; 1 H) was -23%, the “Variation (%) of PAS after treatment” value ([3]; 1 H) was -26% and the “Variation (%) of PAD after treatment” value ([3]; 3 H) was -9%. The “Variation (%) of PAS after treatment” value ([3]; 3 H) was -9%, the “Variation (%) of PAD after treatment” value ([3]; 7 H) was -5% and the “Variation (%) of PAS after treatment” value ([3]; 7 H) was “+2%”. For the same molecule, the “Variation (%) of PAD after treatment” value ([3]; 24 H) was “+18%”, the “Variation (%) of PAS after treatment” value ([3]; 24 H) was “+9%” and the “Variation (%) of PAD after treatment” value ([3]; 30 min) was -46%. For the same molecule, the “Variation (%) of PAS after treatment” value ([3]; 30 min) was -50%, the “% inhibition of the response to 4AP” value (aorta of the rat [4]; product 10^-5 M) was 74% and the “% inhibition of the response to 4AP” value (aorta of the rat [4]; product 10^-7 M) was 13%.
In the case of `CC1(C)Oc2ccc(C#N)cc2C(N2C(=O)CC[C@H]2CO)C1O` (single isomer, unassigned) [Example 1 form A, 3R,4S- or 3S,4R-trans-2,2-dimethyl-3-hydroxy-4-(2-oxo-5S-hydroxymethyl-1-pyrrolidinyl)-6-cyanochroman], the “Variation (%) of CVRM after treatment” value (anaesthetised dog; 300 μg/kg, 1 min) was -81.5%, the “Variation (%) of TPR after treatment” value (anaesthetised dog; 300 μg/kg, 1 min) was -41.9% and the “Variation (%) of CVRM after treatment” value (anaesthetised dog; 300 μg/kg, 10 min) was -50.3%. For the same molecule, the “Variation (%) of TPR after treatment” value (anaesthetised dog; 300 μg/kg, 10 min) was -17.2%, the “Variation (%) of CVRM after treatment” value (anaesthetised dog; 300 μg/kg, 30 min) was -34.9% and the “Variation (%) of TPR after treatment” value (anaesthetised dog; 300 μg/kg, 30 min) was -12.9%. The IC50 (aorta of the rat [1]; [5]) was greater than 0.0001 M, the IC50 (aorta of the rat [1]; 30 mM KCl, listed as Ex. 1 Form A, read-out: IC50 (M) KCl 30 mM) was 7.7e-06 M and the “% inhibition of the response to 4AP” value (aorta of the rat [4]; product 10^-5 M, listed as Ex. 1 Form A) was 35%.
